{"source": "patent US9249135B2", "about": "“Therapeutic agent for mood disorders” (KYOWA HAKKO KIRIN CO., LTD., priority 2009, dated 2016)", "key": {"[1]": {"test_system": "rats", "assay": "Learned helplessness model of depression in rats", "format": "in vivo, rat (male SD)", "excerpt": "From the effects of existing antidepressants and the like on this system, this test is deemed a higher level animal model in rodents.\nThe male SD rats (190 to 260 g; Charles River Japan Inc.) were used in this study. On Day 1 of experiment, a partition board was placed in the center of the shuttle box to create two compartments so that the animals could not move from one compartment to another (220×200×260 mm). In each compartment, one rat was placed. The animals were retained in the shuttle box for 50 minutes and exposed to electrical shocks (IES) given via stainless floor grids with the light on. […]\nOn Day 2 of experiment, the partition board in the center of the shuttle box was removed and replaced by a hurdle 2 cm in height to create two comportments so that the animals could move from one compartment to another. […] Animal's behavior was evaluated according to the following procedures.\nFR1: A buzzer was activated for 10 seconds. […] This procedure counted as one trial, and was continuously repeated 15 times.\nFR2: Electric stimuli (0.5 mA) were applied for 10 seconds to a rat via the floor grids in the compartment where the animal stayed. […] This procedure counted as one trial, and was continuously repeated 15 times. […]"}, "[2]": {"test_system": "rats", "assay": "Forced swim test in rats", "format": "in vivo, rat (male SD-strain)", "excerpt": "The forced swim test in rats and mice is widely used for test system which evaluates antidepressant activities (Arch. Int. Pharmacodyn. Ther. 229, p.327 (1977)). The forced swim test is means for evaluating depressive state using the length of time during which the animal ceases its escape behavior due to a sense of helplessness (immobility time) as an index thereof by placing a mouse or a rat in water in an inescapable cylinder. Since immobility time is shortened by existing antidepressants, this is known as an animal model of depression. The male SD-strain rats (200 to 270 g; Charles River Japan Inc.) were used in this study. A transparent acrylic water bath 18 cm in diameter and 40 cm in height was filled with water at 25° C.±1° C. to a depth of 19 cm. Each rat was slowly placed in the water bath, allowed to stand for 15 minutes, then removed from the bath and dried with a piece of paper towel. The animals were then dried under a table light for 15 minutes and returned to the respective cages (induction of pathological condition). On the following day, the rats were slowly placed in the same water bath. Immediately, immobility time was measured for 5 minutes. […] The antidepressive action of the test compound was evaluated with the immobility time for the vehicle control group and that for the test compound dose group as indexes. […]"}, "[3]": {"test_system": "mice", "assay": "Forced swim test in mice", "format": "in vivo, mouse (male ddY-strain)", "excerpt": "The forced swim test in rats and mice is widely used for test system which evaluates antidepressant activities (Arch. Int. Pharmacodyn. Ther. 229, p.327 (1977)). The forced swim test is means for evaluating depressive state using the length of time during which the animal ceases its escape behavior due to a sense of helplessness (immobility time) as an index thereof by placing a mouse or a rat in water in an inescapable cylinder. Since immobility time is shortened by existing antidepressants, this is known as an animal model of depression. The male ddY-strain mice (20 to 29 g; Japan SLC, Inc.) were used in this study. A transparent acrylic water bath 10 cm in diameter and 25 cm in height was filled with water at 23° C.±1° C. to a depth of 10 cm. Each mouse was slowly placed in the water bath. At 2 minutes after placement in the bath, immobility time (duration during which no escape behavior was observed) was measured for 4 minutes. The test compound was used for the test in suspension in distilled water for injection (manufactured by Otsuka Pharmaceutical Co.,) containing 0.5 w/v % MC (methylcellulose). […] The antidepressant activity of the test compound was evaluated with the immobility time for the vehicle control group and that for the test compound dose group as indexes. […]"}}, "data": [{"smiles": "Cc1ccc(C(=O)Nc2nc(-c3ccco3)c(C(=O)C3CCOCC3)s2)cn1", "note": "[(IC)]", "values": [{"measurement": "escape rate (escape response %)", "setting": "[1]; rats with IES loading, FR2 session, dose of 0.3 mg/kg orally 1 hour before the FR1 session", "value": "88.7±6.7", "unit": "%"}, {"measurement": "action on the escape rate reductions by IES loading in the FR2 session", "setting": "[1]; rats, single oral dose, in words", "value": "significant ameliorating action"}, {"measurement": "immobility time compared with that for the vehicle control group", "setting": "[2]; rat, in words", "value": "shortened"}, {"measurement": "immobility time", "setting": "[2]; rats, 0.1 mg/kg orally 1 hour before the test, measured for 5 minutes, vehicle 204.0 ± 21.0", "value": "81.5 ± 15.1", "unit": "s"}, {"measurement": "immobility time", "setting": "[3]; mice, 0.1 mg/kg orally 1 hour before the test, measured for 4 minutes, vehicle 179.0 ± 15.2", "value": "53.1 ± 11.0", "unit": "s"}, {"measurement": "immobility time compared with that for the vehicle control group", "setting": "[3]; mouse, in words", "value": "shortened"}]}]}
